Assay results reported in patent US10821195B2, “Compositions for therapeutics, targeted PET imaging and methods of their use” (Memorial Sloan Kettering Cancer Center, priority 2015, dated 2020).
“And” between values parts separate entries of the source, which are not always exact repeats. Identical values can stand only once.

Columns and labels:
[1] = Stability of ^89Zr complexes in human serum at 37° C. for 7 d (ITLC, SEC)
Description: Seven day old samples of the Zr-ligand complexes were run down a size exclusion column to differentiate protein and ligand.
Serum stability and immunoreactivity of ^89Zr-complexes were evaluated. To determine the stability in serum, ^89Zr-complexes were incubated in human serum at 37° C. for 7 d. The percentage of intact species was monitored by ITLC (Table 9).
^89Zr-ligand and ^89Zr-ligand-antibody complexes were prepared according to the radiolabeling protocol as described above. For each ^89Zr complex, samples were made consisting of 900 μL human serum and 100 μL of the ^89Zr species and were placed in a heat block at 37° C. with agitation. Samples were monitored using radio-TLC before being added to the serum and then after 1 week of incubation. The stability of the complexes was measured as the percentage of ^89Zr that was retained at the origin of the ITLC strip and therefore still intact.

[2] = EDTA transchelation challenge of ^89Zr complexes; type: physicochemical; conditions: 50-fold excess of EDTA, 37° C., various pHs, 7 days
Excerpt: (§1) In contrast, ^89Zr-HOPO is shown to be approximately impervious to the EDTA. […] This represents a significant improvement in the stability of the Zr-ligand complex at lower pH. […] Initially activity is seen in the bladder, gall bladder, and intestines.

[3] = Biodistribution and clearance of ^89Zr-HOPO and ^89Zr-DFO in healthy mice; type: in vivo, healthy athymic nude mice; parameters: biodistribution Spleen / biodistribution Stomach / biodistribution Large Intestine / biodistribution Small Intestine / biodistribution Kidney / biodistribution Bladder / biodistribution Muscle / biodistribution Bone / biodistribution Tail / biodistribution Blood / biodistribution Heart / biodistribution Lung / biodistribution Gall Bladder / biodistribution Liver: unit not given here
Excerpt: Significant uptake of ^89Zr-HOPO occurs in the gall bladder and intestines as well as the kidney. […] As ^89Zr-DFO is cleared exclusively through the kidneys and not through the hepatobiliary system, it is excreted from the body faster than ^89Zr-HOPO, as evidenced by the blood clearance curve (FIG. 10). While not wishing to be bound to theory, upon conjugation to an antibody, the pharmacokinetics of a ^89Zr-HOPO complex comprising ^89Zr-HOPO and an antibody can be superseded by those of the biomacromolecule, meaning that a difference in clearance pathways between ^89Zr-HOPO and ^89Zr-DFO should not be a concern. However, over the short circulation time of the Zr-ligand complexes, neither DFO nor HOPO show any signs of instability or bone accumulation.

FIG. 2 = experiment: FIG. 2
Excerpt: Table printed on a drawing sheet, FIG. 2
as §1
First reader's note: Cell hatching encodes the percent-intact class given in the legend; the values show stability of the radiometal-chelator complexes against EDTA transchelation.

CC(=O)N(O)CCCCCNC(=O)CCC(=O)N(O)CCCCCNC(=O)CCC(=O)N(O)CCCCCNC(=S)Nc1ccc(N=C=S)cc1 (89Zr complex, metal not drawn) [p-SCN-Bn-DFO]
percentage of intact species, Ligand Only ([1]; ^89Zr-ligand complex, human serum, 7 d, ITLC): 97.7±0.2%

CC(=O)N1CCCCCNC(=O)CCC(=O)N2CCCCCNC(=O)CCC(=O)N(CCCCCN)[O][89Zr+]([O]1)[O]2 [^89Zr-DFO]
stability in human serum (ITLC and SEC) ([1]; bare ligand complexes, one week): stable in serum over 7 days
stability to transchelation by EDTA [2]: susceptible to transchelation
biodistribution Bladder ([3]; 10 min): 2.50 ± 0.48
biodistribution Blood ([3]; 10 min): 5.11 ± 0.90
biodistribution Bone ([3]; 10 min): 0.43 ± 0.10
biodistribution Gall Bladder ([3]; 10 min): 1.57 ± 0.25
biodistribution Heart ([3]; 10 min): 2.17 ± 0.62
biodistribution Kidney ([3]; 10 min): 14.44 ± 5.88
biodistribution Large Intestine ([3]; 10 min): 0.43 ± 0.13
biodistribution Liver ([3]; 10 min): 0.88 ± 0.49
biodistribution Lung ([3]; 10 min): 2.16 ± 1.08
biodistribution Muscle ([3]; 10 min): 0.73 ± 0.56
biodistribution Small Intestine ([3]; 10 min): 0.94 ± 0.16
biodistribution Spleen ([3]; 10 min): 0.37 ± 0.22
biodistribution Stomach ([3]; 10 min): 0.62 ± 0.28
biodistribution Tail ([3]; 10 min): 5.13 ± 2.92
biodistribution Bladder ([3]; 1 h): 2.47 ± 1.30
biodistribution Blood ([3]; 1 h): 0.10 ± 0.04
biodistribution Bone ([3]; 1 h): 0.07 ± 0.04
biodistribution Gall Bladder ([3]; 1 h): 0.47 ± 0.14
biodistribution Heart ([3]; 1 h): 0.06 ± 0.02
biodistribution Kidney ([3]; 1 h): 1.39 ± 0.55
biodistribution Large Intestine ([3]; 1 h): 0.02 ± 0.01
biodistribution Liver ([3]; 1 h): 0.24 ± 0.07
biodistribution Lung ([3]; 1 h): 0.14 ± 0.04
biodistribution Muscle ([3]; 1 h): 0.02 ± 0.01
biodistribution Small Intestine ([3]; 1 h): 0.35 ± 0.17
biodistribution Spleen ([3]; 1 h): 0.06 ± 0.02
biodistribution Stomach ([3]; 1 h): 1.10 ± 0.51
biodistribution Tail ([3]; 1 h): 0.26 ± 0.05
biodistribution Bladder ([3]; 4 h): 1.22 ± 0.77
biodistribution Blood ([3]; 4 h): 0.03 ± 0.01
biodistribution Bone ([3]; 4 h): 0.04 ± 0.02
biodistribution Gall Bladder ([3]; 4 h): 0.26 ± 0.15
biodistribution Heart ([3]; 4 h): 0.03 ± 0.01
biodistribution Kidney ([3]; 4 h): 1.10 ± 0.44
biodistribution Large Intestine ([3]; 4 h): 0.62 ± 0.55
biodistribution Liver ([3]; 4 h): 0.12 ± 0.03
biodistribution Lung ([3]; 4 h): 0.04 ± 0.02
biodistribution Muscle ([3]; 4 h): 0.01 ± 0.01
biodistribution Small Intestine ([3]; 4 h): 0.04 ± 0.02
biodistribution Spleen ([3]; 4 h): 0.03 ± 0.01
biodistribution Stomach ([3]; 4 h): 0.06 ± 0.02
biodistribution Tail ([3]; 4 h): 0.14 ± 0.08
biodistribution Bladder ([3]; 12 h): 0.69 ± 0.31
biodistribution Blood ([3]; 12 h): 0.01 ± 0.00
biodistribution Bone ([3]; 12 h): 0.03 ± 0.01
biodistribution Gall Bladder ([3]; 12 h): 0.16 ± 0.14
biodistribution Heart ([3]; 12 h): 0.02 ± 0.00
biodistribution Kidney ([3]; 12 h): 0.36 ± 0.13
biodistribution Large Intestine ([3]; 12 h): 0.07 ± 0.05
biodistribution Liver ([3]; 12 h): 0.06 ± 0.02
biodistribution Lung ([3]; 12 h): 0.02 ± 0.01
biodistribution Muscle ([3]; 12 h): 0.01 ± 0.00
biodistribution Small Intestine ([3]; 12 h): 0.01 ± 0.01
biodistribution Spleen ([3]; 12 h): 0.02 ± 0.01
biodistribution Stomach ([3]; 12 h): 0.01 ± 0.00
biodistribution Tail ([3]; 12 h): 0.13 ± 0.05
biodistribution Bladder ([3]; 24 h): 0.56 ± 0.41
biodistribution Blood ([3]; 24 h): 0.02 ± 0.02
biodistribution Bone ([3]; 24 h): 0.06 ± 0.01
biodistribution Gall Bladder ([3]; 24 h): 0.23 ± 0.21
biodistribution Heart ([3]; 24 h): 0.02 ± 0.01
biodistribution Kidney ([3]; 24 h): 1.12 ± 0.33
biodistribution Large Intestine ([3]; 24 h): 0.02 ± 0.01
biodistribution Liver ([3]; 24 h): 0.11 ± 0.02
biodistribution Lung ([3]; 24 h): 0.04 ± 0.01
biodistribution Muscle ([3]; 24 h): 0.01 ± 0.00
biodistribution Small Intestine ([3]; 24 h): 0.02 ± 0.01
biodistribution Spleen ([3]; 24 h): 0.02 ± 0.01
biodistribution Stomach ([3]; 24 h): 0.01 ± 0.01
biodistribution Tail ([3]; 24 h): 0.08 ± 0.02
clearance route ([3]; healthy mice): clears exclusively through the kidneys
% INTACT STARTING SPECIES BY INCUBATION TIME | 1 h (FIG. 2): 99.9±0.2% and 97.1±0.8% and 86.6±1.5%
% INTACT STARTING SPECIES BY INCUBATION TIME | 3 h (FIG. 2): 99.3±0.6% and 98.8±0.9% and 98.7±0.8% and 96.2±0.6% and 90.7±1.7% and 55.7±3.8%
